Source: ChEMBL document CHEMBL2407044, “Synthesis, Antiplasmodial Activity, and β-Hematin Inhibition of Hydroxypyridone-Chloroquine Hybrids” (ACS Med Chem Lett, 2013)
Active and inactive are the calls of the source. No cut-off for these calls is given here.

Assays:
Plasmodium falciparum [1] = assay: Antiplasmodial activity against chloroquine-resistant Plasmodium falciparum W2 assessed as parasite survival after 2 days by YOYO-1 staining-based flow cytometric analysis; assay type: functional, organism-based; conditions: W2, 48 h
[2] = Inhibition of beta-hematin formation after 60 mins relative to beta-hematin; assay type: functional
KB = assay: Cytotoxicity against human KB cells after 72 hrs by Alamar blue assay; assay type: cell-based
Plasmodium falciparum [3] = assay: Antiplasmodial activity against chloroquine-sensitive Plasmodium falciparum 3D7 assessed as parasite growth inhibition after 24 hrs by [3H]-hypoxathine incorporation assay; assay type: functional, organism-based
Plasmodium falciparum [4] = assay: Antiplasmodial activity against chloroquine-resistant Plasmodium falciparum K1 assessed as parasite growth inhibition after 24 hrs by [3H]-hypoxathine incorporation assay; assay type: functional, organism-based
[5] = Inhibition of beta-hematin formation at 10 times parental IC50 after 60 mins; assay type: functional

Compound | IC50 (Plasmodium falciparum [1]) [nM] | IC50 [2] [equiv] | IC50 (KB; Homo sapiens, KB, 72 h) [nM] | IC50 (Plasmodium falciparum [3]) [nM] | IC50 (Plasmodium falciparum [4]; Plasmodium falciparum, K1) [nM] | inhibition [5] | IC50 (KB; kb) [nM] | IC50 (Plasmodium falciparum [4]) [nM]
CCc1c(OCc2ccccc2)c(=O)ccn1CCCCNc1ccnc2cc(Cl)ccc12 | 100 | 0.19 | 9000 | 4 | 130 |  |  | 
CCCCCCCCn1ccc(=O)c(O)c1C |  |  |  | 2380 | 1800 |  |  | 
CCCCCCn1ccc(=O)c(OCc2ccccc2)c1C |  |  |  |  |  | inactive |  | 
CCCCCCCCn1ccc(=O)c(OCc2ccccc2)c1C |  |  |  |  |  | inactive |  | 
Cc1c(OCc2ccccc2)c(=O)ccn1CCCCNc1ccnc2cc(Cl)ccc12 | 1120 | 0.27 | 119000 | 50 | 2200 |  |  | 
CCc1c(O)c(=O)ccn1CCNc1ccnc2cc(Cl)ccc12 | 1240 | 1.1 |  | 400 | 890 |  |  | 
COc1c(C)n(CCCCNc2ccnc3cc(Cl)ccc23)ccc1=O | 760 | 0.75 | 27000 | 70 | 220 |  |  | 
Cc1c(O)c(=O)ccn1CCCCNc1ccnc2cc(Cl)ccc12 | 80 | 0.66 | 185000 | 30 | 70 |  |  | 
Cc1c(OCc2ccccc2)c(=O)ccn1CCCNc1ccnc2cc(Cl)ccc12 | 2150 | 0.49 | 67000 | 280 | 3570 |  |  | 
CCc1c(O)c(=O)ccn1CCCCCCNc1ccnc2cc(Cl)ccc12 | 90 | 0.49 | 44000 | 80 | 610 |  |  | 
CCc1c(OC)c(=O)ccn1CCCCNc1ccnc2cc(Cl)ccc12 | 210 | 1.71 |  |  |  |  |  | 
Cc1c(OCc2ccccc2)c(=O)ccn1C |  |  |  |  |  | inactive |  | 
CCc1c(O)c(=O)ccn1CCCCNc1ccnc2cc(Cl)ccc12 | 160 | 0.98 | 76000 | 50 | 270 |  |  | 
CCc1c(O)c(=O)ccn1CCCNc1ccnc2cc(Cl)ccc12 | 540 | 1.3 | 55000 | 120 | 380 |  |  | 
Cc1c(OCc2ccccc2)c(=O)ccn1C(C)C |  |  |  |  |  | inactive |  | 
Cc1c(O)c(=O)ccn1CCNc1ccnc2cc(Cl)ccc12 | 280 | 2.9 |  | 10800 | 32600 |  |  | 
CCc1c(OCc2ccccc2)c(=O)ccn1CCNc1ccnc2cc(Cl)ccc12 | 2590 | 0.5 | 51000 | 950 | 8430 |  |  | 
Cc1c(OCc2ccccc2)c(=O)ccn1CCCCCCNc1ccnc2cc(Cl)ccc12 | 390 | 0.25 | 158000 | 35700 | 4380 |  |  | 
Cc1c(O)c(=O)ccn1CCCCCCNc1ccnc2cc(Cl)ccc12 | 70 | 0.18 | 4000 | 390 | 160 |  |  | 
CCc1c(OCc2ccccc2)c(=O)ccn1CCCNc1ccnc2cc(Cl)ccc12 | 2320 | 0.41 | 15000 | 120 | 71600 |  |  | 
CCc1c(OC)c(=O)ccn1CCCCCCNc1ccnc2cc(Cl)ccc12 | 220 | 0.47 |  |  |  |  |  | 
COc1cc([C@@H]2c3cc4c(cc3[C@H](O)[C@H]3COC(=O)[C@H]23)OCO4)cc(OC)c1OC [PODOFILOX] |  |  | 0.7 |  |  |  |  | 
CCc1c(OCc2ccccc2)c(=O)ccn1CCCCCCNc1ccnc2cc(Cl)ccc12 [listing 1 of 2 here] |  |  | 7000 | 10 | 100 |  |  | 
COc1c(C)n(CCCCCCNc2ccnc3cc(Cl)ccc23)ccc1=O | 90 | 1.07 | 47000 | 130 | 2800 |  |  | 
CCc1c(OCc2ccccc2)c(=O)ccn1CCCCCCNc1ccnc2cc(Cl)ccc12 [listing 2 of 2 here] | 20 | 0.16 |  |  |  |  | 4000 | 80
CCN(CC)CCCC(C)Nc1ccnc2cc(Cl)ccc12 (stereo not drawn) [CHLOROQUINE] |  | 1.9 | 34000 |  |  |  |  | 
Cc1c(OCc2ccccc2)c(=O)ccn1CCNc1ccnc2cc(Cl)ccc12 | 9930 | 0.93 | 54000 | 490 | 3150 |  |  | 
